Where “and” joins values, the source holds several entries; their conditions need not be identical. Equal entries are not always repeated. Toxic doses and inconclusive results are not listed.

The subject of the experiment is BDF1 mice, P388 leukemia ip, median survival T/C. Briefly: NCI In Vivo Anticancer Drug Screen. Data for tumor model P388 Leukemia (intraperitoneal) in B6D2F1 (BDF1) mice. As to conditions: endpoint: median survival time, higher = longer survival. Put shortly: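 Survival ratio, drug arm over vehicle arm, in mice with a transplanted tumour.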
The mark [1] stands for this setting: dose: 25.0 mg/kg/injection, schedule: Q01DX009 (ip), vehicle: water.
Setting [2] is: dose: 50.0 mg/kg/injection, schedule: Q01DX009 (ip), vehicle: water.
[3] abbreviates: dose: 100.0 mg/kg/injection, schedule: Q01DX009 (ip), vehicle: water.
Setting [4] is: dose: 200.0 mg/kg/injection, schedule: Q01DX009 (ip), vehicle: water.
Where [5] appears, read: dose: 400.0 mg/kg/injection, schedule: Q01DX009 (ip), vehicle: water.
The mark [6] stands for this setting: dose: 100.0 mg/kg/injection, schedule: Q01DX009 (ip), vehicle: saline.
Where [7] appears, read: dose: 200.0 mg/kg/injection, schedule: Q04DX003 (ip), vehicle: saline with Tween-80.
Setting [8] is: dose: 100.0 mg/kg/injection, schedule: Q04DX003 (ip), vehicle: saline with Tween-80.
The mark [9] stands for this setting: dose: 400.0 mg/kg/injection, schedule: Q04DX003 (ip), vehicle: saline with Tween-80.
The mark [10] stands for this setting: dose: 50.0 mg/kg/injection, schedule: Q01DX009 (ip), vehicle: saline with Tween-80.
The mark [11] stands for this setting: dose: 100.0 mg/kg/injection, schedule: Q01DX009 (ip), vehicle: saline with Tween-80.

As to `O=C(Cc1ccccc1)Cc1ccccc1`, the T/C reads like this: under setting [1], 99 % of control; under setting [2], 99 % of control; under setting [3], 90 % of control; under setting [4], 97 % of control; (dose: 200.0 mg/kg/injection, schedule: Q04DX003 (ip), vehicle: water) 97 % of control and 100 % of control; (dose: 300.0 mg/kg/injection, schedule: Q04DX003 (ip), vehicle: water) 89 % of control and 97 % of control. Also, the T/C was 109 % of control under setting [5]; 93 % of control and 100 % of control (dose: 400.0 mg/kg/injection, schedule: Q04DX003 (ip), vehicle: water); 108 % of control (dose: 500.0 mg/kg/injection, schedule: Q04DX003 (ip), vehicle: water); 98 % of control (dose: 600.0 mg/kg/injection, schedule: Q04DX003 (ip), vehicle: water).

As to `COC(=O)c1cc(Cl)c(C(=O)OC)cc1Cl`, the T/C runs as follows: (dose: 100.0 mg/kg/injection, schedule: Q04DX003 (ip), vehicle: Klucel (hydroxypropylcellulose) (HPC)) 104 % of control; (dose: 200.0 mg/kg/injection, schedule: Q04DX003 (ip), vehicle: Klucel (hydroxypropylcellulose) (HPC)) 96 % of control; (dose: 400.0 mg/kg/injection, schedule: Q04DX003 (ip), vehicle: Klucel (hydroxypropylcellulose) (HPC)) 100 % of control.

For `O=c1[nH]cnc2ccnn12`, the T/C runs as follows: (dose: 25.0 mg/kg/injection, schedule: Q01DX009 (ip), vehicle: saline) 103 % of control; (dose: 50.0 mg/kg/injection, schedule: Q01DX009 (ip), vehicle: saline) 100 % of control; (dose: 75.0 mg/kg/injection, schedule: Q01DX009 (ip), vehicle: saline) 101 % of control; under setting [6], 100 % of control; (dose: 200.0 mg/kg/injection, schedule: Q01DX009 (ip), vehicle: saline) 90 % of control.

As to `CC(=O)O[C@H]1[C@H]2O[C@]23[C@@H]2CC[C@@H]4C[C@@H](O)CC[C@]4(C)[C@H]2CC[C@]3(C)[C@H]1c1ccc(=O)oc1`, the T/C reads like this: (dose: 3.75 mg/kg/injection, schedule: Q01DX009 (ip), vehicle: Klucel (hydroxypropylcellulose) (HPC)) 100 % of control; (dose: 7.5 mg/kg/injection, schedule: Q01DX009 (ip), vehicle: Klucel (hydroxypropylcellulose) (HPC)) 104 % of control; (dose: 10.0 mg/kg/injection, schedule: Q01DX010 (ip), vehicle: carboxymethylcellulose (CMC)) 90 % of control; (dose: 20.0 mg/kg/injection, schedule: Q01DX010 (ip), vehicle: carboxymethylcellulose (CMC)) 90 % of control.

Consider `CC(CS(=O)(=O)O)NC(CO)(CO)CO` (centres undefined), for which the T/C reads like this: under setting [6], 87 % of control; (dose: 100.0 mg/kg/injection, schedule: Q04DX003 (ip), vehicle: saline) 100 % of control; (dose: 200.0 mg/kg/injection, schedule: Q04DX003 (ip), vehicle: saline) 109 % of control; (dose: 400.0 mg/kg/injection, schedule: Q01DX009 (ip), vehicle: saline) 100 % of control; (dose: 400.0 mg/kg/injection, schedule: Q04DX003 (ip), vehicle: saline) 90 % of control.

For `COc1ccc(CN2CC(C)NC(C)C2)cc1` (centres undefined), the T/C (dose: 3.12 mg/kg/injection, schedule: Q01DX009 (ip), vehicle: water) was 108 % of control; the T/C (dose: 6.25 mg/kg/injection, schedule: Q01DX009 (ip), vehicle: water) was 103 % of control; the T/C (dose: 12.5 mg/kg/injection, schedule: Q01DX009 (ip), vehicle: water) is 95 % of control; the T/C under setting [1] was 91 % of control; the T/C under setting [2] was 117 % of control; the T/C under setting [3] is 100 % of control. Further, the T/C was 99 % of control (dose: 100.0 mg/kg/injection, schedule: Q04DX003 (ip), vehicle: water); 98 % of control under setting [4]; 117 % of control (dose: 300.0 mg/kg/injection, schedule: Q01DX009 (ip), vehicle: water); 97 % of control under setting [5].

Take `N=C(N)SCc1c2ccccc2cc2ccccc12`: the T/C reads like this: under setting [7], 163 % of control; (dose: 300.0 mg/kg/injection, schedule: Q04DX003 (ip), vehicle: saline with Tween-80) 90 % of control.

For the compound `Brc1ccc(C#Cc2ccccc2)cc1`, the T/C was 104 % of control (dose: 100.0 mg/kg/injection, schedule: Q01DX001 (ip), vehicle: Klucel (hydroxypropylcellulose) (HPC)); 108 % of control (dose: 200.0 mg/kg/injection, schedule: Q01DX001 (ip), vehicle: Klucel (hydroxypropylcellulose) (HPC)); 108 % of control (dose: 400.0 mg/kg/injection, schedule: Q01DX001 (ip), vehicle: Klucel (hydroxypropylcellulose) (HPC)).

Regarding `Nc1nc(=O)c2ccccc2s1`, the T/C by setting is: under setting [8], 105 % of control; under setting [7], 111 % of control; under setting [9], 100 % of control.

As to `CCCCCCC(NC(C)=O)C(C)=O` (centres undefined), the T/C by setting is: under setting [10], 104 % of control; under setting [11], 101 % of control; (dose: 200.0 mg/kg/injection, schedule: Q01DX009 (ip), vehicle: saline with Tween-80) 101 % of control.

For `CC(CCl)N(CCCl)Cc1cccc(Nc2ncnc3nc[nH]c23)c1` (centres undefined), the T/C reads like this: (dose: 0.8 mg/kg/injection, schedule: Q01DX009 (ip), vehicle: saline) 152 % of control; (dose: 1.5 mg/kg/injection, schedule: Q01DX009 (ip), vehicle: saline) 154 % of control; (dose: 2.0 mg/kg/injection, schedule: Q01DX009 (ip), vehicle: saline) 164 % of control; (dose: 2.5 mg/kg/injection, schedule: Q01DX009 (ip), vehicle: saline) 185 % of control; (dose: 3.0 mg/kg/injection, schedule: Q01DX009 (ip), vehicle: saline) 160 % of control; (dose: 5.0 mg/kg/injection, schedule: Q01DX009 (ip), vehicle: saline) 175 % of control. The T/C (dose: 10.0 mg/kg/injection, schedule: Q01DX009 (ip), vehicle: saline) is 180 % of control and the T/C (dose: 10.0 mg/kg/injection, schedule: Q04DX003 (ip), vehicle: saline) is 86 % of control.

As to `CCOC(=O)CC1NCCC2C1CCC(OC)C2OC` (centres undefined), the T/C was 95 % of control (dose: 12.5 mg/kg/injection, schedule: Q01DX009 (ip), vehicle: saline with Tween-80); 100 % of control (dose: 25.0 mg/kg/injection, schedule: Q01DX009 (ip), vehicle: saline with Tween-80); 100 % of control under setting [10]; 110 % of control (dose: 50.0 mg/kg/injection, schedule: Q04DX003 (ip), vehicle: other); 105 % of control (dose: 100.0 mg/kg/injection, schedule: Q01DX009 (ip), vehicle: other); 100 % of control (dose: 100.0 mg/kg/injection, schedule: Q04DX003 (ip), vehicle: other). For the same compound, the T/C is 110 % of control (dose: 200.0 mg/kg/injection, schedule: Q01DX009 (ip), vehicle: other) and 100 % of control (dose: 200.0 mg/kg/injection, schedule: Q04DX003 (ip), vehicle: other).

With `CC(C)Cc1[nH]nc2c1C(=O)C(Nc1ccccc1)=CC2=O`, the T/C was 99 % of control under setting [8], 100 % of control under setting [7] and 100 % of control under setting [9].

On to `Oc1c(O)c(Cl)c(Cl)c(Cl)c1Cl`, for which the T/C is, setting by setting: (dose: 12.5 mg/kg/injection, schedule: Q01DX009 (ip), vehicle: saline sonified) 95 % of control; (dose: 12.5 mg/kg/injection, schedule: Q04DX003 (ip), vehicle: saline sonified) 100 % of control; (dose: 25.0 mg/kg/injection, schedule: Q01DX009 (ip), vehicle: saline sonified) 108 % of control; (dose: 25.0 mg/kg/injection, schedule: Q04DX003 (ip), vehicle: saline sonified) 100 % of control; (dose: 50.0 mg/kg/injection, schedule: Q01DX009 (ip), vehicle: saline sonified) 116 % of control; (dose: 50.0 mg/kg/injection, schedule: Q04DX003 (ip), vehicle: saline sonified) 100 % of control.

As for `COc1ccc2c(Cl)cc(NC(=O)Nc3c(C)cccc3C)nc2c1`, the T/C under setting [11] was 88 % of control.
